What all share (assay): relative viability (nuclei count vs DMSO), 5 days (fraction); higher = more cells survive
Compound in one experiment: CC[C@@H](C)CNCC(=O)N1CCC2=C([C@@H]1COC3=CC=CC(=C3)C)C=CS2 [RU-SKI 43]
A digest of the protocol: (§1)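 On vehicle-anchored 1536-well plates, lung cancer cell lines held overnight at 37 °C were pinned with five library-drug doses (not always all listed) spaced by √10. With no medium change over 5 days, they were then fixed, permeabilised and Hoechst-stained in one step and imaged at 4×. MetaXpress counted nuclei, and viability is the median across plates of treated-well over vehicle-well nuclei. Acceptance needed control CV below 25% and at least one doubling.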

Compound in the next experiment: CCc1c2c(nc3ccc(OC(=O)N4CCC(N5CCCCC5)CC4)cc13)-c1cc3c(c(=O)n1C2)COC(=O)[C@]3(O)CC [Irinotecan]
The essentials:
as §1

Compound in a further experiment: Cn1cc(-c2cnc3ccc4ccc(CS(=O)(=O)NCc5ccccn5)cc4c(=O)c3c2)cn1 [MK-8033]
A digest of the protocol: as §1

For NCI-H1792, the relative viability came to 0.844 with RU-SKI 43 (0.1 µM); 1.08 in the experiment with RU-SKI 43 (0.3162 µM); 1.77 with RU-SKI 43 (1 µM); 0.889 with RU-SKI 43 (3.162 µM); 1.03 with RU-SKI 43 (10 µM); 0.862 with Irinotecan (0.6325 µM). The relative viability in the experiment with Irinotecan (2 µM) came to 0.933; with Irinotecan (6.325 µM) it was 0.393; in the experiment with Irinotecan (20 µM), 0.354; with MK-8033 (0.02 µM), 1.22; with MK-8033 (0.06325 µM) it was 0.958; in the experiment with MK-8033 (0.2 µM) it was 0.804. Further, the relative viability with MK-8033 (0.6325 µM) stood at 0.9; with MK-8033 (2 µM), 0.805.
On to NCI-H1793, for which the relative viability with RU-SKI 43 (0.1 µM) was 0.986; with RU-SKI 43 (0.3162 µM), 0.939; with RU-SKI 43 (1 µM), 1; with RU-SKI 43 (3.162 µM), 0.894; with RU-SKI 43 (10 µM) it was 0.755; in the experiment with Irinotecan (2 µM) it was 0.905. Besides, the relative viability with Irinotecan (6.325 µM) was 0.463; with Irinotecan (20 µM), 0.227; in the experiment with MK-8033 (0.02 µM), 0.935; with MK-8033 (0.2 µM) it was 0.761; with MK-8033 (0.6325 µM), 0.792; in the experiment with MK-8033 (2 µM), 0.8.
As to NCI-H1915, the relative viability in the experiment with RU-SKI 43 (0.1 µM) was 1.06; with RU-SKI 43 (0.3162 µM), 1.11; in the experiment with RU-SKI 43 (1 µM), 1.08; in the experiment with RU-SKI 43 (3.162 µM) it was 1; with RU-SKI 43 (10 µM) it was 1.02; with Irinotecan (0.6325 µM), 0.353. The relative viability amounted to 0.475 in the experiment with Irinotecan (2 µM); 0.224 with Irinotecan (6.325 µM); 0.214 with Irinotecan (20 µM); 1 with MK-8033 (0.02 µM); 0.916 with MK-8033 (0.06325 µM); 0.963 with MK-8033 (0.2 µM). For the same cell line, the relative viability with MK-8033 (0.6325 µM) came to 1.02; with MK-8033 (2 µM) it was 0.959.
For NCI-H1944, the relative viability stood at 1.01 with RU-SKI 43 (0.1 µM); 0.98 with RU-SKI 43 (0.3162 µM); 1.08 with RU-SKI 43 (1 µM); 0.968 with RU-SKI 43 (3.162 µM); 0.932 with RU-SKI 43 (10 µM); 0.67 in the experiment with Irinotecan (0.6325 µM). The relative viability in the experiment with Irinotecan (2 µM) was 0.559; in the experiment with Irinotecan (6.325 µM) it was 0.244; with Irinotecan (20 µM), 0.194; with MK-8033 (0.02 µM), 0.927; in the experiment with MK-8033 (0.06325 µM), 0.768; with MK-8033 (0.2 µM) it was 0.982. Moreover, the figures for the relative viability in the experiment with MK-8033 (0.6325 µM) and with MK-8033 (2 µM) were 0.968 and 1.03, respectively.
Regarding NCI-H1975, the relative viability was determined as 1.07 with RU-SKI 43 (0.1 µM); 1.25 with RU-SKI 43 (0.3162 µM); 1.05 with RU-SKI 43 (1 µM); 1.01 with RU-SKI 43 (3.162 µM); 0.922 with RU-SKI 43 (10 µM); 0.894 with Irinotecan (0.6325 µM). Besides, the relative viability was determined as 1.04 in the experiment with Irinotecan (2 µM); 0.622 with Irinotecan (6.325 µM); 0.196 with Irinotecan (20 µM); 0.892 with MK-8033 (0.02 µM); 0.905 with MK-8033 (0.06325 µM); 0.862 with MK-8033 (0.2 µM). The relative viability with MK-8033 (0.6325 µM) is 0.854; with MK-8033 (2 µM) it was 0.931.
Consider NCI-H1993, for which the relative viability amounted to 0.927 in the experiment with RU-SKI 43 (0.1 µM); 0.899 with RU-SKI 43 (0.3162 µM); 1.06 in the experiment with RU-SKI 43 (1 µM); 0.924 with RU-SKI 43 (3.162 µM); 0.925 with RU-SKI 43 (10 µM); 0.596 with Irinotecan (0.6325 µM). For the same cell line, the relative viability came to 0.889 with Irinotecan (2 µM); 0.667 with Irinotecan (6.325 µM); 0.628 in the experiment with Irinotecan (20 µM); 0.925 in the experiment with MK-8033 (0.02 µM); 0.736 in the experiment with MK-8033 (0.06325 µM); 0.663 with MK-8033 (0.2 µM). In addition, the relative viability with MK-8033 (0.6325 µM) turned out to be 0.736; with MK-8033 (2 µM), 0.727.
With NCI-H2009, the relative viability with RU-SKI 43 (0.1 µM) amounted to 1.02; in the experiment with RU-SKI 43 (0.3162 µM), 1.07; with RU-SKI 43 (1 µM), 1.07; with RU-SKI 43 (3.162 µM) it was 1.06; with RU-SKI 43 (10 µM), 1.01; with Irinotecan (0.6325 µM), 0.716. Further, the relative viability with Irinotecan (2 µM) was found to be 0.733; with Irinotecan (6.325 µM) it was 0.272; in the experiment with Irinotecan (20 µM), 0.153; in the experiment with MK-8033 (0.02 µM), 1.05; with MK-8033 (0.06325 µM) it was 1.01; with MK-8033 (0.2 µM), 0.953. The relative viability in the experiment with MK-8033 (0.6325 µM) came to 0.945; with MK-8033 (2 µM), 0.961.
Regarding NCI-H2023, the relative viability in the experiment with RU-SKI 43 (0.1 µM) turned out to be 1.06; with RU-SKI 43 (0.3162 µM) it was 1.47; in the experiment with RU-SKI 43 (1 µM), 1.11; with RU-SKI 43 (3.162 µM), 1.1; in the experiment with RU-SKI 43 (10 µM), 0.905; in the experiment with Irinotecan (0.6325 µM) it was 0.881. In addition, the relative viability is 0.829 with Irinotecan (2 µM); 0.217 with Irinotecan (6.325 µM); 0.0696 with Irinotecan (20 µM); 0.941 with MK-8033 (0.02 µM); 0.88 with MK-8033 (0.06325 µM); 0.838 with MK-8033 (0.2 µM). The relative viability was 0.846 with MK-8033 (0.6325 µM) and 0.715 in the experiment with MK-8033 (2 µM).

The record behind these values is the supplement of paper PMC10307832.
